The source made the active and inactive calls. No cut-off for these calls is given here.
What was measured:
[1] = molecular target: Phosphatidylinositol 4,5-bisphosphate 3-kinase catalytic subunit alpha isoform (Homo sapiens) (UniProt P42336); assay: Inhibition of wild-type human partial length PIK3CA (R108 to N1068 residues) expressed in mammalian expression system assessed as residual activity at 1 uM by Kinomescan method relative to control
[2] = molecular target: Mitogen-activated protein kinase 10 (Homo sapiens) (UniProt P53779); assay: Inhibition of wild-type human partial length JNK3 (V28 to Q422 residues) expressed in mammalian expression system assessed as residual activity at 1 uM by Kinomescan method relative to control
[3] = molecular target: Tyrosine-protein kinase JAK3 (Homo sapiens) (UniProt P52333); assay: Inhibition of wild-type human partial length JAK3 JH1 catalytic domain (I781 to S1124 residues) expressed in mammalian expression system assessed as residual activity at 1 uM by Kinomescan method relative to control
[4] = molecular target: Receptor tyrosine-protein kinase erbB-4 (Homo sapiens) (UniProt Q15303); assay: Inhibition of wild-type human partial length ERBB4 (L690 to K994 residues) expressed in bacterial expression system assessed as residual activity at 1 uM by Kinomescan method relative to control
BT-483 [5] = assay: Induction of apoptosis in human BT-483 cells assessed as necrotic cells at 5 uM by Annexin V-FITC/propidium iodide staining based flow cytometry (reference value: 0.18%); format: functional
[6] = molecular target: MAP kinase-interacting serine/threonine-protein kinase 2 (Homo sapiens) (UniProt Q9HBH9); assay: Inhibition of wild-type human partial length MKNK2 (G63 to S388 residues) expressed in mammalian expression system assessed as residual activity at 1 uM by Kinomescan method relative to control
[7] = molecular target: Mast/stem cell growth factor receptor Kit (Homo sapiens) (UniProt P10721); assay: Inhibition of wild-type human partial length KIT (I571 to D952 residues) expressed in bacterial expression system assessed as residual activity at 1 uM by Kinomescan method relative to control
[8] = molecular target: T1, Eukaryotic elongation factor 2 kinase (Homo sapiens) (UniProt O00418); assay: Inhibition of GST-tagged EEF2K (unknown origin) at 20 uM using biotinylated EEF2 peptide substrate by HTRF assay relative to control
T1 sequence (whole entry): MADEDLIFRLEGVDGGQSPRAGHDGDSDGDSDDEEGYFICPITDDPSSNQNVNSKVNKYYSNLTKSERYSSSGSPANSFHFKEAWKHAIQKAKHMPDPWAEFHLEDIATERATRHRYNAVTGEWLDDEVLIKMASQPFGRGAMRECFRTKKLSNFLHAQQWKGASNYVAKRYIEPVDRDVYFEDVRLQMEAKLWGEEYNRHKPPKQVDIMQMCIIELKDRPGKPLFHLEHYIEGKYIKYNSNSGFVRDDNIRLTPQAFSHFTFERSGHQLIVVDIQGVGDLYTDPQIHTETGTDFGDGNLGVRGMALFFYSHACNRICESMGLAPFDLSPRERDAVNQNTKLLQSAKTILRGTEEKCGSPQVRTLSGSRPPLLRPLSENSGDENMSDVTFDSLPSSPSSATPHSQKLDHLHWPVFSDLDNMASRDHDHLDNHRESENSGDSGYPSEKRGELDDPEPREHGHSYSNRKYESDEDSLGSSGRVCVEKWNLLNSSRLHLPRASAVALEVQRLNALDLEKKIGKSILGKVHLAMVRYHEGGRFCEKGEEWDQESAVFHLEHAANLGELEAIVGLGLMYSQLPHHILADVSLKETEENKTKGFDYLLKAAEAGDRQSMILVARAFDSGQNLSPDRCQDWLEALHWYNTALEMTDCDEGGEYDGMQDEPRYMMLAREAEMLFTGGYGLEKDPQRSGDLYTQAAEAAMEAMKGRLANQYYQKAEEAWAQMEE

[9] = molecular target: Proto-oncogene tyrosine-protein kinase receptor Ret (Homo sapiens) (UniProt P07949); assay: Inhibition of wild-type human partial length RET (E713 to D1014 residues) expressed in bacterial expression system assessed as residual activity at 1 uM by Kinomescan method relative to control
Proto-oncogene tyrosine-protein kinase receptor Ret (Homo sapiens), sequence (P07949 whole entry, the tested form may be a part): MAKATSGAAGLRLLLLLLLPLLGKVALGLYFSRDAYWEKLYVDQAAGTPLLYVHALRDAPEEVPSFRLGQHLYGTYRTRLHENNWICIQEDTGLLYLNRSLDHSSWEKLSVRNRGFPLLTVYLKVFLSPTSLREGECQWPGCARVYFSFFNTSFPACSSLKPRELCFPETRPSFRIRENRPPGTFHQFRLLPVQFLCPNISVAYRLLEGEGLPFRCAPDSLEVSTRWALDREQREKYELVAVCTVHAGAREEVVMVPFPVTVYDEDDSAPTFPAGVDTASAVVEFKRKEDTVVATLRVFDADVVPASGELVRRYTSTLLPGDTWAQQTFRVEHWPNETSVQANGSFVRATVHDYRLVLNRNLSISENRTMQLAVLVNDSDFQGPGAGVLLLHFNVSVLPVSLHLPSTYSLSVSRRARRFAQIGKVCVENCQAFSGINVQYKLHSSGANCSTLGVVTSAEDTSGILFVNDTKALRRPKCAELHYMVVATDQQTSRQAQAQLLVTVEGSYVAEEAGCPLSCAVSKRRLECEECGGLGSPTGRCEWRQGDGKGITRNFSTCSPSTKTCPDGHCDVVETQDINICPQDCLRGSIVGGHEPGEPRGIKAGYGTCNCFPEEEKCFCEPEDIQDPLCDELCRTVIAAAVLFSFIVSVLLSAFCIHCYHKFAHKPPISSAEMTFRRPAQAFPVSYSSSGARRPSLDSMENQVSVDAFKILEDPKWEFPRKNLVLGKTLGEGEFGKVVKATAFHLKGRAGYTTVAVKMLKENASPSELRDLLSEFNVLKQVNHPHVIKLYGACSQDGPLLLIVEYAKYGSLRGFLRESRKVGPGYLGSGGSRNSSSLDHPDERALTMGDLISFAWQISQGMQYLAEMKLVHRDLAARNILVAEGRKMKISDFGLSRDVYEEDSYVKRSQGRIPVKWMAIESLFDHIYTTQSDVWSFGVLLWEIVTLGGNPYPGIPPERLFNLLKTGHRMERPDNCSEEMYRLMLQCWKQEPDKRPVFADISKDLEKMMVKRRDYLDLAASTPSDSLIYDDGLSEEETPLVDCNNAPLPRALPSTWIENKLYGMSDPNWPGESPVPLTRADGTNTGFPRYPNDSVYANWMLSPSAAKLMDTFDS

[10] = molecular target: Serine/threonine-protein kinase PLK1 (Homo sapiens, UniProt P53350); assay: Inhibition of wild-type human partial length PLK1 (A33 to F325 residues) expressed in mammalian expression system assessed as residual activity at 1 uM by Kinomescan method relative to control
[11] = molecular target: Ephrin type-A receptor 2 (Homo sapiens) (UniProt P29317); assay: Inhibition of wild-type human partial length EPHA2 (T593 to V891 residues) expressed in bacterial expression system assessed as residual activity at 1 uM by Kinomescan method relative to control
[12] = molecular target: Bone morphogenetic protein receptor type-2 (Homo sapiens) (UniProt Q13873); assay: Inhibition of wild-type human partial length BMPR2 (R179 to Q526 residues) expressed in mammalian expression system assessed as residual activity at 1 uM by Kinomescan method relative to control
Bone morphogenetic protein receptor type-2 (Homo sapiens), sequence (Q13873 whole entry, the tested form may be a part): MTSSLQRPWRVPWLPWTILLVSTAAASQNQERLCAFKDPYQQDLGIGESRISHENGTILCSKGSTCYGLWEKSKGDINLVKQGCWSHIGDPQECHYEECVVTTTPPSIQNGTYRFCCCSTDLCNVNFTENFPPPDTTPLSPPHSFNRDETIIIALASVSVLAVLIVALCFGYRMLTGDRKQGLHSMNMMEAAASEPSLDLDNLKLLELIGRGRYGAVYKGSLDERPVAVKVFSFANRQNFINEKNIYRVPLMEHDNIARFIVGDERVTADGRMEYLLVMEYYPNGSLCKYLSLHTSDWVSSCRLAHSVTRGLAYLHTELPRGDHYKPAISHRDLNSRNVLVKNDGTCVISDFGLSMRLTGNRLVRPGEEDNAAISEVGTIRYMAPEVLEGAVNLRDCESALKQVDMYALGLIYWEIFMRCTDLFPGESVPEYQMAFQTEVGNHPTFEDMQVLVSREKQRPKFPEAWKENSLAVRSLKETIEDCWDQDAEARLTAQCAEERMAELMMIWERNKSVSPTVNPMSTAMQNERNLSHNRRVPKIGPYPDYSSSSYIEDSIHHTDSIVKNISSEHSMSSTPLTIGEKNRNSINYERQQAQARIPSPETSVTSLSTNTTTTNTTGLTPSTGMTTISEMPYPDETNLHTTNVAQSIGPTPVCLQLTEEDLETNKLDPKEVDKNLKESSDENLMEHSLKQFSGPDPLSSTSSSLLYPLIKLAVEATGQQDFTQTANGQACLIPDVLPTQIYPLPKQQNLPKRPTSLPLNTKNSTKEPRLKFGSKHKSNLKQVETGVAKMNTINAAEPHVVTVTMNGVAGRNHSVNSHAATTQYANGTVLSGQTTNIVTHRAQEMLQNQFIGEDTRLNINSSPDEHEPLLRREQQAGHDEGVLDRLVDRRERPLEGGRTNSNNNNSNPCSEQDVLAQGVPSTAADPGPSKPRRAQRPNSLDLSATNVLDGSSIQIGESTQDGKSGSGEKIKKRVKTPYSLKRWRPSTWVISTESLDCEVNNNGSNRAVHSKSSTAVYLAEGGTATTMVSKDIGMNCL

BT-483 [13] = assay: Induction of apoptosis in human BT-483 cells assessed as necrotic cells at 10 uM by Annexin V-FITC/propidium iodide staining based flow cytometry (reference value: 0.18%); format: functional
BT-483 [14] = assay: Effect on total PLK1 protein expression in human BT-483 cells at 5 to 10 uM by Western blot analysis; format: ADME, cell-based; settings: bt-483, 10 µM
[15] = molecular target: Tyrosine-protein kinase ABL1 (Homo sapiens) (UniProt P00519); assay: Inhibition of wild-type human phosphorylated ABL1 (S229 to K512 residues) expressed in mammalian expression system assessed as residual activity at 1 uM by Kinomescan method relative to control
[16] = molecular target: Serine/threonine-protein kinase STK11 (Homo sapiens) (UniProt Q15831); assay: Inhibition of wild-type human full length LKB1 (M1 to Q433 residues) expressed in bacterial expression system assessed as residual activity at 1 uM by Kinomescan method relative to control
Serine/threonine-protein kinase STK11 (Homo sapiens), sequence (Q15831 whole entry, the tested form may be a part): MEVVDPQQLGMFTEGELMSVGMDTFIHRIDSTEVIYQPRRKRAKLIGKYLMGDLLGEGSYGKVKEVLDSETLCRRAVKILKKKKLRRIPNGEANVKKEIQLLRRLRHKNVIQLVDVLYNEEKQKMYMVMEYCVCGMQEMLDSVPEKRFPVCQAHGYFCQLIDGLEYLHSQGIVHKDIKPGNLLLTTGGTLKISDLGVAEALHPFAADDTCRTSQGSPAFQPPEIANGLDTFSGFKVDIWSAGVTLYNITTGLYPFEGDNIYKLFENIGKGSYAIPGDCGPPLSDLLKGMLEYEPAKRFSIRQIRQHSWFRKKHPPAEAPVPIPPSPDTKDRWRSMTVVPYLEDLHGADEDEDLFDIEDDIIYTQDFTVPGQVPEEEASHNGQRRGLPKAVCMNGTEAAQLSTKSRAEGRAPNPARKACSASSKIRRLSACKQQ

[17] = molecular target: Serine/threonine-protein kinase pim-3 (Homo sapiens) (UniProt Q86V86); assay: Inhibition of wild-type human partial length PIM3 (G16 to A317 residues) expressed in bacterial expression system assessed as residual activity at 1 uM by Kinomescan method relative to control
BT-483 [18] = assay: Induction of autophagy in human BT-483 cells assessed as activation of LC3 at 5 to 10 uM by Western blot analysis; format: functional, cell-based
BT-483 [19] = assay: Upregulation of Bad protein expression in human BT-483 cells at 5 to 10 uM by Western blot analysis; format: functional, cell-based
[20] = molecular target: Insulin-like growth factor 1 receptor (Homo sapiens) (UniProt P08069); assay: Inhibition of wild-type human partial length IGF1R (L972 to D1294 residues) expressed in bacterial expression system assessed as residual activity at 1 uM by Kinomescan method relative to control
BT-483 [21] = assay: Induction of apoptosis in human BT-483 cells assessed as live cells at 5 uM by Annexin V-FITC/propidium iodide staining based flow cytometry (reference value: 87.5%); format: functional
[22] = molecular target: Protein kinase C epsilon type (Homo sapiens) (UniProt Q02156); assay: Inhibition of wild-type human partial length PRKCE (A378 to P737 residues) expressed in mammalian expression system assessed as residual activity at 1 uM by Kinomescan method relative to control
Protein kinase C epsilon type (Homo sapiens), sequence (Q02156 whole entry, the tested form may be a part): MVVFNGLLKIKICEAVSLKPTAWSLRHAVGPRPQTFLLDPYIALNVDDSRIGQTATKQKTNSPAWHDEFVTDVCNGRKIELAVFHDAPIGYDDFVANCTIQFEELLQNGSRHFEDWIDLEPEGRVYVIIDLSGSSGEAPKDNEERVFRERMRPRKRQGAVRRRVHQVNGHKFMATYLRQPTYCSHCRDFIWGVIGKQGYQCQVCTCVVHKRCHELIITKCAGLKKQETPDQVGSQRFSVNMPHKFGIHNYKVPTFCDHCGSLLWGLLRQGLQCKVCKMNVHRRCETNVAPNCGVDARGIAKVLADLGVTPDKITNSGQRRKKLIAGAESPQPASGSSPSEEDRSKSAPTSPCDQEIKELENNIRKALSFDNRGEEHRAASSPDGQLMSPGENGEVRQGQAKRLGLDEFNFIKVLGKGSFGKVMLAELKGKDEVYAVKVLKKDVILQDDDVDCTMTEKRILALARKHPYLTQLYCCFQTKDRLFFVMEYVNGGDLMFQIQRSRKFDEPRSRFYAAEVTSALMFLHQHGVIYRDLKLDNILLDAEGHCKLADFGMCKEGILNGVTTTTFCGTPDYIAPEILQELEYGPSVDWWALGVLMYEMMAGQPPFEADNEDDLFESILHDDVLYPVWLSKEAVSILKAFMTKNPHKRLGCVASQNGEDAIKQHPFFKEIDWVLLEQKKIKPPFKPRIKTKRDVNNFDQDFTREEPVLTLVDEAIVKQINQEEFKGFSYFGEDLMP

Phosphatidylinositol 4,5-bisphosphate 3-kinase catalytic subunit alpha isoform (Homo sapiens), sequence (P42336 whole entry, the tested form may be a part, canonical isoform): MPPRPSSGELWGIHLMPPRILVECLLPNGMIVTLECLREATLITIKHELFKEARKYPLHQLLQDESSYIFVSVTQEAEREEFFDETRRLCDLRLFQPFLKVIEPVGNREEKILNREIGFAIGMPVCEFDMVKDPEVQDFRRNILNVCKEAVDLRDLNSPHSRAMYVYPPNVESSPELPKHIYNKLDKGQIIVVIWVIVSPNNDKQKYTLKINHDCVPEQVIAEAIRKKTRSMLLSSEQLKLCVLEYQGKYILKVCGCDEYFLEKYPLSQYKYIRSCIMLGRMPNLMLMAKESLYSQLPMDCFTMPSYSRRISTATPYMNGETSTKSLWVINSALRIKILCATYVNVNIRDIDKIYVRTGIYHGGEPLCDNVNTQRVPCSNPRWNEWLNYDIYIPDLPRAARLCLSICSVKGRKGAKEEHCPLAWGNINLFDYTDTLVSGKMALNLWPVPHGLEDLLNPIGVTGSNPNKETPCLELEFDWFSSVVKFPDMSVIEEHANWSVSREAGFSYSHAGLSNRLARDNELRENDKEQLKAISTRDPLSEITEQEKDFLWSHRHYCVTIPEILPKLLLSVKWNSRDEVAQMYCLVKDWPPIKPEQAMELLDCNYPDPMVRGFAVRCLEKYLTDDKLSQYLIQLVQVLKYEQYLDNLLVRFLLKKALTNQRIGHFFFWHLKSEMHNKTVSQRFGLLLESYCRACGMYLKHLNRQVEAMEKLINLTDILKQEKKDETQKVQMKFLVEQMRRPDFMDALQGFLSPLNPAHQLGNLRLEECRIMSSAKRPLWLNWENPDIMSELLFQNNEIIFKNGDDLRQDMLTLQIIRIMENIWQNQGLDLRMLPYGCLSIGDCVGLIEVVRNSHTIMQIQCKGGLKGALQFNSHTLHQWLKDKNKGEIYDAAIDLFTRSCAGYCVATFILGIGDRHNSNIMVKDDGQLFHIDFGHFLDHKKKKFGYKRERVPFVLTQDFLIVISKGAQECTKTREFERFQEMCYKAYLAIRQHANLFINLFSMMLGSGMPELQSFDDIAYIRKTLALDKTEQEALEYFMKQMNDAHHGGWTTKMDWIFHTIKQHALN

Question: For CCNc1cc(-c2ccc(NC(=O)Nc3cccc(Cl)c3)cc2C(F)(F)F)ccn1, which Activity [1] is on record?
Answer: 69%

Question: And the Activity [2]?
Answer: 64%

Question: And the Activity [3]?
Answer: 98%

Question: What about the Activity [4] of the same molecule?
Answer: 92%

Question: What about the Activity (BT-483 [5]) of the same molecule?
Answer: 0.45%

Question: What about the Activity [6] of the same molecule?
Answer: 73%

Question: And the Activity [7]?
Answer: 76%

Question: And the inhibition [8]?
Answer: 82.7%

Question: What about the Activity [9] of the same molecule?
Answer: 64%

Question: What about the Activity [10] of the same molecule?
Answer: 7%

Question: And the Activity [11]?
Answer: 95%

Question: What about the Activity [12] of the same molecule?
Answer: 94%

Question: What about the Activity (BT-483 [13]) of the same molecule?
Answer: 0.48%

Question: What about the Activity (BT-483 [14]) of the same molecule?
Answer: Non-Toxic

Question: What about the Activity [15] of the same molecule?
Answer: 83%

Question: And the Activity [16]?
Answer: 75%

Question: And the Activity [17]?
Answer: 100%

Question: And the Activity (BT-483 [18])?
Answer: Active

Question: And the Activity (BT-483 [19])?
Answer: Active

Question: And the Activity [20]?
Answer: 78%

Question: What about the Activity (BT-483 [21]) of the same molecule?
Answer: 86.2%

Question: What about the Activity [22] of the same molecule?
Answer: 67%

Source: ChEMBL document CHEMBL4251622, “Design, synthesis, and biological evaluation of polo-like kinase 1/eukaryotic elongation factor 2 kinase (PLK1/EEF2K) dual inhibitors for regulating breast cancer cells apoptosis and autophagy” (Eur J Med Chem, 2018)
